We go through four substances from patent publication US6339149B1, “Isolated nucleic acid molecules which encode tumor rejection antigens found in dage” (Ludwig Institute for Cancer Research, priority 1994, dated 2002).

For the assay, the system named is C1R-A24 cells. The experiment in a line: 51Cr release assay: peptide sensitization of C1R-A24 cells to lysis by anti LB33-E CTLs. Type of assay: cell-based, human. The note with it: 51Cr labeled C1R-A24 cells incubated 30 minutes with peptide, E/T ratio 10:1, chromium release after 4 hours. As to the method:
The lysis assay employed was a chromium release assay following Herin et al., Int. J. Cancer 39:390-396 (1987), the disclosure of which is incorporated by reference. The assay, however, is described herein. The target melanoma cells were grown in vitro. Prior to labelling, these cells were incubated for 48 hours, in the presence of 50 U/ml of IFN-γ to increase the expression of HLA Class I molecules. The cells were then resuspended at 10^7 cells/ml in DMEM, supplemented with 10 mM HEPES and 30% FCS (i.e. fetal calf serum), and incubated for 45 minutes at 37° C. with 200 μCi/ml of Na(^51Cr)O4. Labelled cells were washed three times with DMEM, supplemented with 10 mM Hepes. These were then resuspended in DMEM supplemented with 10 mM Hepes and 10% FCS, after which 100 ul aliquots containing 10^3 cells, were distributed into 96 well microplates. PBL containing samples were added in 100 ul of the same medium, and assays were carried out in duplicate. Plates were centrifuged for 4 minutes at 100 g, and incubated for four hours at 37° C. in a 5.5% CO2 atmosphere.
Plates were centrifuged again, and 100 ul aliquots of supernatant were collected and counted. Percentage of ^51Cr release was calculated as follows: [formula]
where ER is observed, experimental ^51Cr release, SR is spontaneous release measured by incubating 10^3 labeled cells in 200 ul of medium alone, and MR is maximum release, obtained by adding 100 ul 0.3% Triton X-100® to target cells.
Four sequences in this region which (i) were 9 or 10 amino acids long, (ii) had Tyr or Phe at position 2, and (iii) had one of Phe, Leu, Ile, or Trp at C-terminus were possible. This is the motif for HLA-A24 binding described by Kubo, et al, J. Immunol 152:3913 (1994); Meier, et al, Immunogenetics 40:306-308 (1994). These were synthesized, and incubated with cells of MHC class I negative B-cell lympoblastoid line C1R, which had been transfected with the HLA-A24 cDNA clone described supra. One peptide:
Comparative experiments were carried out, wherein peptides containing one additional N- or C-terminal amino acid, and where the C-terminal Leu was deleted, were used. […] Peptides used extended SEQ ID NO:5 at the N-terminues with Ala (SEQ ID NO:6), and by deleting the C-terminal Leu (SEQ ID NO:7). […] In these experiments, ^51Cr labeled C1R-A24 cells were incubated for 30 minutes in the presence of indicated peptide concentrations CTLs were added at E/T ratios of 10:1, and chromium release was measured after 4 hours.

“LYVDSLFFL [SEQ ID NO. 5, Leu Tyr Val Asp Ser Leu Phe Phe Leu]”: the EC50 (read-out: half maximal effect in sensitizing transfected C1R-A24 cells to lysis by anti LB33-E CTLs) was 500 nM. Turning to “SEQ ID NO:6: Peptide that extends SEQ ID NO:5 at the N-terminus with Ala (ALYVDSLFFL)”, the “sensitization of C1R-A24 cells to lysis, compared with SEQ ID NO:5” value (shortened to “sensitization … compared with SEQ ID NO:5”) was “sensitized the cells to lysis, although to a lesser degree than SEQ ID NO:5”. Take “SEQ ID NO:7: Peptide of SEQ ID NO:5 with the C-terminal Leu deleted (LYVDSLFF)”: the “sensitization … compared with SEQ ID NO:5” value is “much less sensitive in sensitizing the cells”. On to “SEQ ID NO:8: Peptide of SEQ ID NO:5 with Arg added to the C terminus (LYVDSLFFLR)”, for which the “sensitization … compared with SEQ ID NO:5” value is listed as “much less sensitive in sensitizing the cells”.
